These results are taken from patent US20140309974A1 (priority 2013, published 2014).

Data set [1] deals with HSV-1 KOS strain expressing green fluorescent protein (GFP). The data set can be described thus: HSV-1 (KOS, GFP reporter) infection of NIH 3T3 cells, flow cytometry of GFP-positive cells. Format: cell-based, herpes simplex virus-1 on NIH 3T3 cells. The note with it: for antiviral effect on HSV-1 infection (in words) / percentage of infected (GFP-positive) cells after treatment: NIH 3T3 cells; for antiviral effect on HSV-1 infection (in words): HSV-1 KOS GFP, flow cytometry / fluorescence images; for percentage of infected (GFP-positive) cells after treatment: MOI about 0.1, about 16 hours, no drug gives about 60%. The procedure: Cell culture: NIH 3T3 cells were grown on 15 cm plates in DMEM supplemented with about 5% Fetalplex and about 1% penicillin/streptomycin and kept in an about 37° C. incubator with about 5% CO2. To propagate cells, the experiments involved plating 107 on each […] plate and splitting the cells every 24 hours. For each experimental iteration, the experiments plated 2×10^5 cells/well in a 24-well plate. To minimize variance generated from different batches of cells, the trial group and crossover group were tested and compared using the same batch of cells for each iteration.
Viral infection: HSV-1 KOS strain expressing green fluorescent protein (GFP) in frame with the ICPO protein between amino acids 104 and 105 was used. The virus was prepared by propagation of virus on a confluent monolayer of Vero cells. Supernatants from infected cells were collected and centrifuged to separate cell debris. The cell pellet in residual medium was frozen and thawed three times at about −80° C. and about 37° C., respectively. The residual supernatant was then pooled together with the original supernatant, and viral titers were determined by a standard plaque assay on Vero cell monolayers. Multiplicity of infection (MOI) of about 0.1 was used throughout except as indicated. To control MOI, cells, virus, and drug combinations were added at the same time and incubated at about 37° C. After about 17 hours, culture medium was aspirated, and cells were detached with PBS-EDTA treatment at about 37° C. for about 5 minutes. Detached cells were transferred to flow cytometry tubes, pelleted, and re-suspended in about 1.6% PFA and kept at about 4° C. until analysis. A BD FACS Canto II was used for flow cytometry analysis.
HSV-1 infectious disease model: HSV-1 infection on an NIH 3T3 fibroblast cell line was used as an in vitro model system to search for new therapeutic drug combinations. The antiviral drugs that are used in the therapeutic model include three antiviral cytokines (IFN-α, IFN-β, and IFN-γ), ribavirin, acyclovir, and TNF-α. Virus-infected cells were treated with single drugs or drug combinations and cultured for about 16 hours. The HSV-1 strain used to infect the NIH 3T3 cells encodes a GFP reporter in infected cells, allowing flow cytometric analysis of cells to measure the rate and extent of infection, because the fluorescence intensity of GFP correlated to the presence of virus. Determination of efficacy of drug treatments was made by comparing the number of GFP-negative non-infected cells in the absence or presence of drug treatment. This value was considered the antiviral readout of a drug treatment.
The infectious dose of HSV-1 used (MOI: number of infectious virions per cell) is an important parameter when evaluating the outcome of potential therapies. […] An MOI of about 0.1 was used throughout the studies.

For data set [2] the following is noted: high doses of ribavirin; cited from earlier work.

As for `Nc1nc2c(ncn2COCCO)c(=O)[nH]1` [acyclovir], the “viral infection over incubation time, day 1 to day 4 (in words)” value in data set [1] (HSV-1-infected cells cultured 1 day to 4 days in presence of drug, flow cytometry) was “remained constant as time increased”. In addition, in data set [1], the “antiviral effect on HSV-1 infection (in words)” value is “reduced the infection rate, though a large percentage of cells were infected despite drug treatment” and the “percentage of infected (GFP-positive) cells after treatment” value is on record as “about 15%”.

On to `NC(=O)c1ncn([C@@H]2O[C@H](CO)[C@@H](O)[C@H]2O)n1` [ribavirin], for which, in data set [2], the reported side effects entry was “cause anemia, to be teratogenic in some animal tests, and to inhibit DNA synthesis in a dosage dependent manner”. For the same compound, in data set [1], the “percentage of infected (GFP-positive) cells after treatment” value is listed as “about 5%”.

TNF-α: in data set [1], the “antiviral effect on HSV-1 infection (in words)” value is listed as “potentiated HSV-1 infection, resulting in more infected cells than the non-treated control”.
